Assay results from patent US6809208B2, “3-Arylbenzofuranones with electron-withdrawing substituents as stabilizers” (Ciba Specialty Chemicals Corporation, priority 2000, dated 2004).

Key:
[1] = Stabilization of multiple-extruded polypropylene; conditions: 0.05% of compound; heating zones 260, 270, 280° C.; measured at 230° C./2.16 kg; without compound 17.5
Description: 1.3 kg of polypropylene powder (Profax 6501), which has been prestabilized with 0.025% of Irganox®1076 (n-octadecyl 3-[3,5-di-tert-butyl-4-hydroxyphenyl]propionate) (melt index 3.2 g/10 min, measured at 230° C./2.16 kg) are blended with 0.05% of Irganox®1010 (pentaerythritol tetrakis[3-(3,5-di-tert-butyl-4-hydroxyphenyl)propionate]), 0.05% of calcium stearate, 0.03% of DHT 4A® (Kyowa Chemical Industry Co., Ltd., [Mg4.5Al2(OH)13CO3.3.5H2O]) and 0.05% of compound of Table 4. This blend is then extruded in an extruder having a cylinder diameter of 20 mm and a length of 400 mm at 100 rpm, the 3 heating zones being adjusted to the following temperatures: 260, 270, 280° C. The extrudate is cooled by drawing it through a water bath and is then granulated. This granulate is repeatedly extruded. After 3 extrusions, the melt index is measured (at 230° C./2.16 kg). A substantial increase in the melt index denotes pronounced chain degradation, i.e. poor stabilization.

[2] = Discoloration of powder coatings based on a carboxy-functional polyester cured in electric and gas ovens; conditions: total 0.60% stabilizers rel. to components 1 to 5
Description: To prepare the powder coating composition based on a carboxy-functional polyester, components 1 to 6 (formulation without additives) or components 1 to 7 (formulation containing the stabilizers) are employed in the sequence indicated (cf. Table 13).
The components weighed out in this way are mixed using a planetary stirrer. The mixture is then extruded on a prism extruder at 300 revolutions/minute and at 100° C. and is rolled out. The powder coating composition is coarsely comminuted using a bench cutter and is ground in a Retsch ZM-1 ultracentrifugal mill with a 0.75 mm annular-perforation screen at 15,000 revolutions/minute. Finally, the powder is passed through a 30 μm screen on a centrifugal screening machine.
The finished powder coating composition is sprayed electrostatically to a coat thickness of 70 μm onto aluminium panels using an ESB-Wagner corona cup gun at 60 kV. Some of the coated panels are cured at 180° C. for 90 minutes in an electric oven. The remaining coated panels are cured at 180° C. for 45 minutes in a gas oven with an NO2 content of 20 ppm. The yellowness index (YI) of the samples is determined in accordance with ASTM D 1925-70. Low YI values denote little discoloration, high YI values denote severe discoloration of the samples.

[3] = Stabilization of polyethylene during processing (Brabender plastograph); conditions: 0.05 part compound and 0.05 part Irganox 1010 per 100 parts polyethylene; 220° C., 50 rpm; without compound 9.7
Description: 100 parts of polyethylene powder (Lupolen®5260 Z) are blended with 0.05 part of Irganox®1010 (pentaerythritol tetrakis[3-(3,5-di-tert-butyl-4-hydroxyphenyl)propionate]) and 0.05 part of a compound of Table 5 and the blend is kneaded in a Brabender plastograph at 220° C. and 50 rpm. During this time the kneading resistance is recorded continuously as torque. In the course of the kneading time the polymer begins to crosslink after prolonged constancy, as can be determined by the rapid increase in torque. The time taken until a marked increase in torque is shown in Table 5 as a measure of the stabilizing action. The longer this time is the better the stabilizing action.

[4] = Stabilization of multiple-extruded polypropylene at high temperature; set-up: unit not given here; conditions: stabilizer 0.100% by weight, measured at 230° C./2.16 kg
Description: This blend is then extruded in an extruder having a cylinder diameter of 20 mm and a length of 400 mm at 100 rpm, the 3 heating zones being adjusted to the following temperatures: 280, 320, 340° C. The extrudate is cooled by drawing it through a water bath and is then granulated. This granulate is repeatedly extruded. […] A substantial increase in the melt index denotes pronounced chain degradation, i.e. poor stabilization.

[5] = Stabilization of polycarbonate (time at 135° C. until YI = 20); conditions: 0.05% stabilizer; without stabilizer 1560
Description: 1.0 kg of a polycarbonate powder which has been dried for 8 hours at 120° C. in a vacuum drying oven (Lexan®145, of General Electric) is charged with the stabilizers listed in Table 19 and is mixed for 2 minutes in a Henschel mixer. This mixture is then extruded in a Schwabenthan extruder at a maximum of 280° C. The polymer string is then granulated. Using an injection moulding machine, plates having a layer thickness of 2 mm are then moulded from the granulate so obtained at a maximum of 300° C. These plates are then aged in a circulating air oven at 135° C., the time in hours until the yellowness index (YI) reaches a value of 20 according to ASTM D 1925-70 being measured. […]

[6] = Stabilization of polycarbonate (oven ageing at 135° C., yellowness index and transmission); conditions: 0.05% stabilizer
Description: This mixture is then extruded in a Schwabenthan extruder at a maximum of 280° C. The polymer string is then granulated. Using an injection moulding machine, plates having a layer thickness of 2 mm are then moulded from the granulate so obtained at a maximum of 300° C. […] Low YI values denote little discoloration, high YI values high discoloration of the patterns. […] The results are compiled in Tables 17 and 18.

[7] = Light-colored SBR-vulcanisate (Example 22): ΔL-color after 3 weeks in diffuse daylight; conditions: 1.0 phr stabilizer; 3 weeks at room temperature in diffuse daylight; scale 0 to 100, 100 = no discoloration; without stabilizer 94
Description: (§1) 100 parts by weight of Cariflex®S-1502 (styrene/butadiene rubber, Shell) are processed at 60° C., in a mixing mill, with 30.0 parts by weight of Kronos®CL 220 [titanium dioxide (pigment), Kronos Titan GmbH], 30.0 parts by weight of Aktisil®MM [kaolin (filler), Hoffmann Mineral, Neuburg/Donau], 5.0 parts by weight of Naftolen®N 401 [plasticizer, Metallgesellschaft], 10.0 parts by weight of zinc oxide [vulcanization activator], 2.0 parts by weight of stearic acid [vulcanization activator], 2.0 parts by weight of sulfur [vulcanizing agent], 1.0 part by weight of Vulkacit®MOZ [vulcanisation accelerator, Bayer], 0.25 part by weight of Vulkacit®Thiuram [vulcanization accelerator, Bayer] and 1.0 part by weight of the stabilizer to be tested according to Table 24, to form a homogeneous mixture, the vulcanization system (sulfur, Vulkacit®MOZ and Vulkacit®Thiuram) not being added until the end of the mixing process. The mixture is vulcanized in electrical vulcanization presses at 150° C. until T95 is reached in the rheometer curves to form elastomer plates 2 mm thick, 21 cm long and 8.0 cm wide.
(§2) The remaining elastomer plates are stored for 3 weeks at room temperature in a standard laboratory atmosphere in diffuse daylight. The ΔL-color of those plates is then determined according to DIN 6167, which corresponds to a scale of from 0 to 100. No discoloration is indicated by a value of 100.

[8] = Light-colored SBR-vulcanisate, ozone atmosphere for 96 hours: crack formation; set-up: key: grade 0: Grade 0 denotes no cracks; grade 1 denotes narrow flat cracks; grade 2 denotes moderately broad, moderately deep cracks, clearly visible; grade 3 denotes broad and deep cracks; conditions: 2.0 phr stabilizer, ozone 50 pphm, 40° C., dynamic elongation, without stabilizer grade 2
Description: as §1, with “[plasticiser,” for “[plasticizer,”, “[vulcanization” for “[vulcanisation”, “[…],” for “Bayer] and 1.0 part by weight of the stabilizer to be tested according to Table 24,”
Some of the elastomer plates so obtained are tested for the action of ozone according to the ASTM standard D 3395-86 while subject to dynamic elongation. In this test the plates are first stored for 30 days in a standard atmosphere [23/50 SN-ISO 291]. Test specimens measuring 20 cm by 1 cm are then punched out and exposed to an ozone atmosphere for 96 hours (ozone content: 50 pphm; temperature: 40° C.; humidity: 50% rel.; elongation: 0 to 25%; elongation rate: 0.5 Hz; number of load cycles: approximately 173 000). The test plates are then assessed for crack formation according to ASTM D 3395-86. Grade 0 denotes no cracks; grade 1 denotes narrow flat cracks; grade 2 denotes moderately broad, moderately deep cracks, clearly visible; grade 3 denotes broad and deep cracks. The lower the grade number, the better the stabilization of the elastomer plates.

[9] = Light-colored SBR-vulcanisate, ozone atmosphere for 48 hours: crack formation; set-up: key: grade 0: Grade 0 denotes no cracks; grade 1 denotes narrow flat cracks; grade 2 denotes moderately broad, moderately deep cracks, clearly visible; grade 3 denotes broad and deep cracks; conditions: 1.0 phr stabilizer, ozone 50 pphm, 40° C., dynamic elongation, without stabilizer grade 1-2
Description: as §1
Some of the elastomer plates so obtained are tested for the action of ozone according to the ASTM standard D 3395-86 while subject to dynamic elongation. […] The test plates are then assessed for crack formation according to ASTM D 3395-86. […]

[10] = Light-colored SBR-vulcanisate (Example 23): ΔL-color after 3 weeks in diffuse daylight; conditions: 2.0 phr stabilizer; 3 weeks at room temperature in diffuse daylight; scale 0 to 100, 100 = no discoloration; without stabilizer 97
Description: as §1, with “[plasticiser,” for “[plasticizer,”, “[vulcanization” for “[vulcanisation”, “[…],” for “Bayer] and 1.0 part by weight of the stabilizer to be tested according to Table 24,”
as §2

[11] = Stabilization of polycarbonate (yellowness index of extruded granulate); conditions: 0.05% stabilizer; granulate after extrusion at a maximum of 280° C.; without stabilizer 10.3
Description: 1.0 kg of a polycarbonate powder which has been dried for 8 hours at 120° C. in a vacuum drying oven (Lexan®145, of General Electric) is charged with the stabilizers listed in Table 22 and is then mixed for 2 minutes in a Henschel mixer. This mixture is then extruded in a Schwabenthan extruder at a maximum of 280° C. The polymer string is then granulated. The granulate so obtained is packed into 1 cm thick polystyrene boxes and the yellowness index (YI) is determined according to ASTM D 1925-70. Low YI values denote little discoloration, high YI values high discoloration of the samples. […]

CCCCCCCCOC(=O)c1ccc(C2C(=O)Oc3c2cc(C(C)(C)C)cc3C(C)(C)C)cc1 (stereo not drawn) [Compound (110), 5,7-di-tert-butyl-3-(4-n-octyloxycarbonylphenyl)-3H-benzofuran-2-one]
Melt index after 3 extrusions [1]: 4.7 | Yellowness index after 90 minutes (ASTM D 1925-70) ([2]; Curing for 45 minutes in a gas oven at 180° C., NO2 content 20 ppm, without stabilizer 4.2): 3.4 | Yellowness index after 90 minutes (ASTM D 1925-70) ([2]; Curing for 90 minutes in an electric oven at 180° C., without stabilizer 3.1): 2.7 | Time until increase in torque [3]: 27.5 min

CC(C)(C)c1ccc(OP(Oc2ccc(C(C)(C)C)cc2C(C)(C)C)Oc2ccc(C(C)(C)C)cc2C(C)(C)C)c(C(C)(C)C)c1 [Irgafos ®168, tris(2,4-di-tert-butylphenyl)phosphite, reference compound]
Melt index after 5 extrusions ([4]; 280° C.): 9.7 | Melt index after 5 extrusions ([4]; 320° C.): 43.8 | Melt index after 5 extrusions ([4]; 340° C.): 80.1 | Time in hours at 135° C. to YI = 20 [5]: 2000 h | Yellowness index prior to oven-ageing ([6]; 2 mm plates, ASTM D 1925-70): 3.4 | Transmission in % prior to oven-aging ([6]; at 450 nm): 84.7% | Transmission in % after 2000 hours at 135° C. ([6]; at 450 nm, without stabilizer 76.4): 77.8% | Yellowness index after 2000 hours at 135° C. ([6]; circulating air oven, without stabilizer 25.0): 23.5

CC(C)Nc1ccc(Nc2ccccc2)cc1 [Vulkanox ® 4010, 4-isopropylamino-diphenylamine, reference compound]
ΔL-color according to DIN 6167 [7]: 70 | Crack formation according to ASTM D 3395-86 [8]: grade 0 | Crack formation according to ASTM D 3395-86 [9]: grade 0 | ΔL-color according to DIN 6167 [10]: 56

Cc1cc(OP(Oc2cc(C)c(C(C)(C)C)cc2C(C)(C)C)c2ccc(-c3ccc(P(Oc4cc(C)c(C(C)(C)C)cc4C(C)(C)C)Oc4cc(C)c(C(C)(C)C)cc4C(C)(C)C)cc3)cc2)c(C(C)(C)C)cc1C(C)(C)C [GSY ®P101]
Yellowness index [11]: 5.1

CC(C)(C)c1cc2c(c(C(C)(C)C)c1)OC(=O)C2c1cc(C#N)cc(C#N)c1 (stereo not drawn) [Compound (108)]
ΔL-color according to DIN 6167 [7]: 96 | Crack formation according to ASTM D 3395-86 [8]: grade 1 | Crack formation according to ASTM D 3395-86 [9]: grade 0-1 | ΔL-color according to DIN 6167 [10]: 95
